Here are results for 40 molecules from US8106055B2, “Substituted amide compounds” (Gruenenthal GmbH, priority 2007, dated 2012).

The experiment has as its target T1, human μ opiate receptor (Homo sapiens, UniProt P35372).
T1 construct: purchased PerkinElmer Life Sciences, Zaventem, Belgium RB-HOM; host or cells: CHO-K1 cells (membrane preparation)
Put plainly: Affinity for the human μ opiate receptor ([3H]-naloxone displacement, CHO-K1 receptor membrane preparation, SPA). The format is binding. The following applies: test concentration of 1 μM. Put shortly:
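Displacement of 1 nmol/l [3H]-naloxone measured by SPA counting after 90 min at room temperature, using human μ receptor CHO-K1 membrane preparation in Tris-HCl buffer with 0.06% BSA. Test substances at 1 μmol/l give % inhibition; dilution series yield IC50, then Ki (Cheng-Prusoff); non-specific binding with 100 μmol/l naloxone.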

T1 sequence (P35372 whole entry): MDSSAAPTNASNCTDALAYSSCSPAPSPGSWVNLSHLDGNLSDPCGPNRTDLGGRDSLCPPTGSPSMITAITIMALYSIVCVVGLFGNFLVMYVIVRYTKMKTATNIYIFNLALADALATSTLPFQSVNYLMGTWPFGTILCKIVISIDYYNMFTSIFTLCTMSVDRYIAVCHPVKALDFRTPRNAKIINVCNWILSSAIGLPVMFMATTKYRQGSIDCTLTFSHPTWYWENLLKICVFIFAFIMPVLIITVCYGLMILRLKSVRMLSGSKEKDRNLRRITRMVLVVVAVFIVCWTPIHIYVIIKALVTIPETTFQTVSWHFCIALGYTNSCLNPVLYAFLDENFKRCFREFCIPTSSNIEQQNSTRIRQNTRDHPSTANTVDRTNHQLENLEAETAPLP

Regarding `CN(C)C(c1cccc(F)c1)C1CCC(CCNC(=O)COCCN(Cc2ccccc2)S(=O)(=O)c2ccccc2)CC1` (stereo not shown) [Example 278], the “μ (binding on the μ opioid receptor, % inhibition)” value stood at 77%. For the molecule `COc1cc(C)c(S(=O)(=O)N2CCCC(OCC(=O)NC3CCC(C(c4cccc(F)c4)N(C)C)CC3)C2)c(C)c1C` (stereo not shown) [Example 279], the “μ (binding on the μ opioid receptor, % inhibition)” value is 77%.

As to `COc1ccc(S(=O)(=O)N2CCCCC2COCC(=O)NCC2CCC(C(c3ccc(Cl)cc3)N(C)C)CC2)c(OC)c1` (stereo not shown) [Example 280], the “μ (binding on the μ opioid receptor, % inhibition)” value came out at 73%.

Regarding `COc1ccc(S(=O)(=O)N2CCCCC2COCC(=O)NCCC2CCC(C(c3cccc(F)c3)N(C)C)CC2)c(OC)c1` (stereo not shown) [Example 281], the “μ (binding on the μ opioid receptor, % inhibition)” value was 77%. Turning to `CN(C)C(c1cccs1)C1CCC(NC(=O)COCCN(C)S(=O)(=O)c2ccc(OC(F)(F)F)cc2)CC1` (stereo not shown) [Example 282], the “μ (binding on the μ opioid receptor, % inhibition)” value turned out to be 74%. With `CN(C)C(c1cccc(F)c1)C1CCC(NC(=O)COC2CCN(S(=O)(=O)c3ccc(Cl)cc3Cl)C2)CC1` (stereo not shown) [Example 283], the “μ (binding on the μ opioid receptor, % inhibition)” value is recorded as 74%. The same measure for `CN(C)C(c1ccc(Cl)cc1)C1CCC(CNC(=O)COCCN(C)S(=O)(=O)c2ccc(Cl)cc2)CC1` (stereo not shown) [Example 284]: 70%; for `CN(C)C(c1ccc(F)cc1)C1CCC(CCNC(=O)COCCN(C)S(=O)(=O)c2c(Cl)cccc2Cl)CC1` (stereo not shown) [Example 285]: 69%; for `COc1cc(C)c(S(=O)(=O)N2CCC(OCC(=O)NC3CCC(C(c4cccc(F)c4)N(C)C)CC3)CC2)c(C)c1C` (stereo not shown) [Example 286]: 76%. Take `COc1cc(C)c(S(=O)(=O)N2CCC(OCC(=O)NCC3CCC(C(c4cccc(F)c4)N(C)C)CC3)CC2)c(C)c1C` (stereo not shown) [Example 287]: the “μ (binding on the μ opioid receptor, % inhibition)” value was 71%. The result for `COc1ccc(S(=O)(=O)N2Cc3ccccc3CC2COCC(=O)NCC2CCC(C(c3ccc(F)cc3)N(C)C)CC2)cc1` (stereo not shown) [Example 288] reads 65%; that for `CN(C)C(c1ccc(Cl)cc1)C1CCC(CCNC(=O)COCCN(C)S(=O)(=O)c2cccc(C(F)(F)F)c2)CC1` (stereo not shown) [Example 289], 67%. For `CN(C)C(c1ccc(F)cc1)C1CCC(NC(=O)COC2CCN(S(=O)(=O)c3ccc(Cl)cc3Cl)C2)CC1` (stereo not shown) [Example 290], the “μ (binding on the μ opioid receptor, % inhibition)” value is 67%.

Regarding `CN(C)C(c1ccc(Cl)cc1)C1CCC(CCNC(=O)COCCN(C)S(=O)(=O)c2ccc(Cl)cc2Cl)CC1` (stereo not shown) [Example 291], the “μ (binding on the μ opioid receptor, % inhibition)” value came to 65%. With `COc1ccc(S(=O)(=O)N(C)CCOCC(=O)NCCC2CCC(C(c3cccc(F)c3)N(C)C)CC2)cc1` (stereo not shown) [Example 292], the “μ (binding on the μ opioid receptor, % inhibition)” value came to 74%. On to `COc1ccc(S(=O)(=O)N(C)CCOCC(=O)NCCC2CCC(C(c3cccc(F)c3)N(C)C)CC2)cc1OC` (stereo not shown) [Example 293], for which the “μ (binding on the μ opioid receptor, % inhibition)” value is recorded as 75%.

With `CN(C)C(c1ccc(Cl)cc1)C1CCC(CNC(=O)COCC2CCCN(S(=O)(=O)c3ccccc3)C2)CC1` (stereo not shown) [Example 294], the “μ (binding on the μ opioid receptor, % inhibition)” value was 63%. The same measure for `CN(C)C(c1cccc(F)c1)C1CCC(CCNC(=O)COCC2CCCN(S(=O)(=O)c3ccccc3)C2)CC1` (stereo not shown) [Example 295]: 71%.

As for `CN(C)C(c1cccc(F)c1)C1CCC(CNC(=O)COCCN(Cc2ccccc2)S(=O)(=O)c2ccccc2)CC1` (stereo not shown) [Example 296], the “μ (binding on the μ opioid receptor, % inhibition)” value was 64%. For the molecule `CN(C)C(c1cccc(F)c1)C1CCC(NC(=O)COCCN(C)S(=O)(=O)c2cccc(C(F)(F)F)c2)CC1` (stereo not shown) [Example 297], the “μ (binding on the μ opioid receptor, % inhibition)” value is listed as 74%. Consider `COc1cc(C)c(S(=O)(=O)N(C)CCOCC(=O)NCC2CCC(C(c3ccc(Cl)cc3)N(C)C)CC2)c(C)c1C` (stereo not shown) [Example 298], for which the “μ (binding on the μ opioid receptor, % inhibition)” value is 64%. For `CN(C)C(c1ccc(Cl)cc1)C1CCC(CNC(=O)COC2CCN(S(=O)(=O)c3ccccc3)C2)CC1` (stereo not shown) [Example 299], the “μ (binding on the μ opioid receptor, % inhibition)” value was found to be 63%.

Take `CN(C)C(c1ccccc1)C1CCC(CNC(=O)COC2CCN(S(=O)(=O)c3ccccc3)CC2)CC1` (stereo not shown) [Example 300]: the “μ (binding on the μ opioid receptor, % inhibition)” value is on record as 66%. With `CN(C)C(c1ccc(Cl)cc1)C1CCC(CNC(=O)COC2CCCN(S(=O)(=O)c3ccccc3)C2)CC1` (stereo not shown) [Example 301], the “μ (binding on the μ opioid receptor, % inhibition)” value worked out at 69%. For the molecule `CN(C)C(c1cccc(F)c1)C1CCC(CNC(=O)COCCN(C)S(=O)(=O)c2cccc(C(F)(F)F)c2)CC1` (stereo not shown) [Example 302], the “μ (binding on the μ opioid receptor, % inhibition)” value came to 75%. `CN(C)C(c1cccc(F)c1)C1CCC(CNC(=O)COCCN(C)S(=O)(=O)c2ccc(OC(F)(F)F)cc2)CC1` (stereo not shown) [Example 303]: the “μ (binding on the μ opioid receptor, % inhibition)” value is listed as 66%. Turning to `Cc1ccc(S(=O)(=O)N2CCC(OCC(=O)NCC3CCC(C(c4ccc(Cl)cc4)N(C)C)CC3)C2)cc1` (stereo not shown) [Example 304], the “μ (binding on the μ opioid receptor, % inhibition)” value was found to be 64%.

Take `Cc1ccc(S(=O)(=O)N2CCC(OCC(=O)NCCC3CCC(C(c4ccc(Cl)cc4)N(C)C)CC3)C2)cc1` (stereo not shown) [Example 305]: the “μ (binding on the μ opioid receptor, % inhibition)” value worked out at 63%.

Consider `Cc1ccc(S(=O)(=O)N(C)CCOCC(=O)NCCC2CCC(C(c3ccc(Cl)cc3)N(C)C)CC2)cc1` (stereo not shown) [Example 306], for which the “μ (binding on the μ opioid receptor, % inhibition)” value is 60%. `COc1cc(C)c(S(=O)(=O)N2CCC(OCC(=O)NCCC3CCC(C(c4cccc(F)c4)N(C)C)CC3)C2)c(C)c1` (stereo not shown) [Example 307]: the “μ (binding on the μ opioid receptor, % inhibition)” value is reported as 73%. Regarding `CN(C)C(c1cccc(F)c1)C1CCC(CNC(=O)COCCN2CCN(S(=O)(=O)c3ccccc3)CC2)CC1` (stereo not shown) [Example 308], the “μ (binding on the μ opioid receptor, % inhibition)” value is listed as 60%. Take `CN(C)C(c1cccc(F)c1)C1CCC(CNC(=O)COC2CCCN(S(=O)(=O)c3ccccc3)C2)CC1` (stereo not shown) [Example 309]: the “μ (binding on the μ opioid receptor, % inhibition)” value came to 69%. As to `CCN(CCOCC(=O)NCC1CCC(C(c2ccc(Cl)cc2)N(C)C)CC1)S(=O)(=O)c1c(C)cc(OC)c(C)c1C` (stereo not shown) [Example 310], the “μ (binding on the μ opioid receptor, % inhibition)” value was 61%.

As for `COc1ccc(S(=O)(=O)N2CCCCC2COCC(=O)NCCC2CCC(C(c3ccc(Cl)cc3)N(C)C)CC2)cc1` (stereo not shown) [Example 311], the “μ (binding on the μ opioid receptor, % inhibition)” value came out at 67%. Regarding `COc1ccc(S(=O)(=O)N2CCCCC2CCOCC(=O)NCC2CCC(C(c3ccc(Cl)cc3)N(C)C)CC2)cc1` (stereo not shown) [Example 312], the “μ (binding on the μ opioid receptor, % inhibition)” value is listed as 61%. As to `COc1ccc(S(=O)(=O)N2CCCC2COCC(=O)NCC2CCC(C(c3cccc(F)c3)N(C)C)CC2)cc1` (stereo not shown) [Example 313], the “μ (binding on the μ opioid receptor, % inhibition)” value turned out to be 71%. In the case of `CN(C)C(c1ccc(Cl)cc1)C1CCC(CNC(=O)COCCN(C)S(=O)(=O)c2cccc(C(F)(F)F)c2)CC1` (stereo not shown) [Example 314], the “μ (binding on the μ opioid receptor, % inhibition)” value came out at 64%. On to `COc1cc(C)c(S(=O)(=O)N(C)CCOCC(=O)NCCC2CCC(C(c3ccc(Cl)cc3)N(C)C)CC2)c(C)c1C` (stereo not shown) [Example 317], for which the “μ (binding on the μ opioid receptor, % inhibition)” value is 62%. With `CN(C)C(c1ccc(Cl)cc1)C1CCC(CNC(=O)COCCN(C)S(=O)(=O)c2c(Cl)cc(Cl)cc2Cl)CC1` (stereo not shown) [Example 318], the “μ (binding on the μ opioid receptor, % inhibition)” value came to 65%.

Turning to `COc1cc(C)c(S(=O)(=O)N2CCC(CCOCC(=O)NCC3CCC(C(c4cccc(F)c4)N(C)C)CC3)CC2)c(C)c1C` (stereo not shown) [Example 319], the “μ (binding on the μ opioid receptor, % inhibition)” value was 71%.
